Results taken from ChEMBL document CHEMBL1201862, “PubChem BioAssay data set” (2004).
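All cell lines were grown in 96-well plates and treated with compound for 48 hours. At the GI50, growth is halved.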 Activity calls are given as the source filed them. No stated cut-off is given here; in the data, active = GI50 up to about 1.1 µM and inactive = higher.

Experiments:
Assay in all cases: inhibition of tumour cell growth, NCI panel, 48 h
[1] = system: TK-10
[2] = system: 786-0
[3] = system: SK-OV-3
[4] = system: DMS-114
[5] = system: NCI-H522
[6] = system: LOX IMVI
[7] = system: SR
[8] = system: SK-MEL-2
[9] = system: DLD-1
[10] = system: Malme-3M
[11] = system: SNB-19
[12] = system: SW-620
[13] = system: SK-MEL-5
[14] = system: A549
[15] = system: NCI-H226
[16] = system: OVCAR-3
[17] = system: M19-MEL
[18] = system: CAKI-1
[19] = system: SK-MEL-28
[20] = system: RPMI-8226
[21] = system: CCRF-CEM
[22] = system: SF-295
[23] = system: KM12
[24] = system: HL-60
[25] = system: NCI-H460
[26] = system: SF-268
[27] = system: HCC 2998
[28] = system: RXF 393
[29] = system: U-251
[30] = system: OVCAR-5
[31] = system: OVCAR-4
[32] = system: A498
[33] = system: LXFL 529
[34] = system: K562
[35] = system: SNB-78
[36] = system: SF-539
[37] = system: M14
[38] = system: COLO 205
[39] = system: HT-29
[40] = system: ACHN
[41] = system: DMS-273
[42] = system: UO-31
[43] = system: EKVX
[44] = system: SN12C
[45] = system: MOLT-4
[46] = system: HOP-18
[47] = system: HOP-62
[48] = system: HCT-116
[49] = system: UACC-62
[50] = system: UACC-257
[51] = system: HCT-15
[52] = system: OVCAR-8
[53] = system: SNB-75
[54] = system: NCI-H23
[55] = system: KM-20L2
[56] = system: IGROV-1
[57] = system: HOP-92

In the case of `O=C1[C@H]2ON(c3ccccc3)C(c3cccc([N+](=O)[O-])c3)[C@H]2C(=O)N1c1ccc(Cc2ccc(N3C(=O)[C@@H]4ON(c5ccccc5)C(c5cccc([N+](=O)[O-])c5)[C@@H]4C3=O)cc2)cc1` (some centres undefined), the GI50 [1] is reported as > 100 µM (inactive), the GI50 [2] is reported as > 100 µM (inactive) and the GI50 [3] is reported as > 100 µM (inactive). The GI50 [4] was > 100 µM (inactive), the GI50 [5] was > 100 µM (inactive) and the GI50 [6] was > 100 µM (inactive). The GI50 [7] was > 100 µM (inactive), the GI50 [8] was > 100 µM (inactive) and the GI50 [9] was > 100 µM (inactive). The GI50 [10] was 75 µM (inactive), the GI50 [11] was > 100 µM (inactive) and the GI50 [12] was > 100 µM (inactive). For the same compound, the GI50 [13] was 43.9 µM (inactive), the GI50 [14] was > 100 µM (inactive) and the GI50 [15] was > 100 µM (inactive). For the same compound, the GI50 [16] was > 100 µM (inactive), the GI50 [17] was > 100 µM (inactive) and the GI50 [18] was 38.6 µM (inactive). The GI50 [19] was > 100 µM (inactive), the GI50 [20] was > 100 µM (inactive) and the GI50 [21] was > 100 µM (inactive). The GI50 [22] was > 100 µM (inactive), the GI50 [23] was > 100 µM (inactive) and the GI50 [24] was > 100 µM (inactive). For the same compound, the GI50 [25] was > 100 µM (inactive), the GI50 [26] was > 100 µM (inactive) and the GI50 [27] was > 100 µM (inactive). The GI50 [28] was > 100 µM (inactive), the GI50 [29] was > 100 µM (inactive) and the GI50 [30] was > 100 µM (inactive). For the same compound, the GI50 [31] was > 100 µM (inactive), the GI50 [32] was 36.5 µM (inactive) and the GI50 [33] was > 100 µM (inactive). For the same compound, the GI50 [34] was > 100 µM (inactive), the GI50 [35] was > 100 µM (inactive) and the GI50 [36] was > 100 µM (inactive). For the same compound, the GI50 [37] was 21.6 µM (inactive), the GI50 [38] was 42.3 µM (inactive) and the GI50 [39] was > 100 µM (inactive). For the same compound, the GI50 [40] was > 100 µM (inactive), the GI50 [41] was > 100 µM (inactive) and the GI50 [42] was > 100 µM (inactive). The GI50 [43] was > 100 µM (inactive), the GI50 [44] was > 100 µM (inactive) and the GI50 [45] was > 100 µM (inactive). For the same compound, the GI50 [46] was > 100 µM (inactive), the GI50 [47] was > 100 µM (inactive) and the GI50 [48] was > 100 µM (inactive). The GI50 [49] was 47.4 µM (inactive), the GI50 [50] was > 100 µM (inactive) and the GI50 [51] was greater than 100 µM. For the same compound, the GI50 [52] was > 100 µM (inactive), the GI50 [53] was > 100 µM (inactive) and the GI50 [54] was > 100 µM (inactive). The GI50 [55] was > 100 µM (inactive) and the GI50 [56] was > 100 µM (inactive).

`CCCCCC#COC1CC(C)CC[C@@H]1C(C)C` (some centres undefined) was tested, and the GI50 [1] was > 100 µM (inactive), the GI50 [2] was > 100 µM (inactive) and the GI50 [3] was > 100 µM (inactive). For the same compound, the GI50 [5] was 24.5 µM (inactive), the GI50 [6] was 15.6 µM (inactive) and the GI50 [8] was > 100 µM (inactive). The GI50 [9] was 41.3 µM (inactive), the GI50 [10] was > 100 µM (inactive) and the GI50 [11] was 58.1 µM (inactive). For the same compound, the GI50 [12] was 18.5 µM (inactive), the GI50 [13] was > 100 µM (inactive) and the GI50 [14] was 56.5 µM (inactive). For the same compound, the GI50 [15] was > 100 µM (inactive), the GI50 [16] was > 100 µM (inactive) and the GI50 [17] was 48 µM (inactive). For the same compound, the GI50 [18] was 50.8 µM (inactive), the GI50 [19] was > 100 µM (inactive) and the GI50 [20] was 26.4 µM (inactive). The GI50 [21] was 15.4 µM (inactive), the GI50 [22] was 39.2 µM (inactive) and the GI50 [23] was 98.9 µM (inactive). For the same compound, the GI50 [24] was 23 µM (inactive), the GI50 [25] was 23.8 µM (inactive) and the GI50 [26] was > 100 µM (inactive). For the same compound, the GI50 [27] was > 100 µM (inactive), the GI50 [28] was 36.3 µM (inactive) and the GI50 [29] was 42.3 µM (inactive). For the same compound, the GI50 [30] was 71.4 µM (inactive), the GI50 [31] was > 100 µM (inactive) and the GI50 [57] was > 100 µM (inactive). The GI50 [33] was 97.9 µM (inactive), the GI50 [34] was 27.9 µM (inactive) and the GI50 [35] was > 100 µM (inactive). The GI50 [36] was > 100 µM (inactive), the GI50 [37] was > 100 µM (inactive) and the GI50 [38] was > 100 µM (inactive). For the same compound, the GI50 [39] was 59.4 µM (inactive), the GI50 [40] was 78.2 µM (inactive) and the GI50 [41] was 65 µM (inactive). The GI50 [42] was 50.4 µM (inactive), the GI50 [43] was 42.7 µM (inactive) and the GI50 [44] was > 100 µM (inactive). The GI50 [46] was > 100 µM (inactive), the GI50 [47] was 47.9 µM (inactive) and the GI50 [48] was 57.7 µM (inactive). The GI50 [49] was 62.7 µM (inactive), the GI50 [50] was 46.2 µM (inactive) and the GI50 [51] was greater than 100 µM. The GI50 [52] was > 100 µM (inactive), the GI50 [53] was 75.9 µM (inactive) and the GI50 [54] was > 100 µM (inactive). The GI50 [55] was 61.1 µM (inactive) and the GI50 [56] was 27.7 µM (inactive).
